Data taken from patent publication US20240238423A9, “TETRAHYDROISOQUINOLINE HETEROBIFUNCTIONAL BCL-XL DEGRADERS” (Treeline Biosciences, Inc., priority 2022, published 2024).
Where two headings read alike, the source gives them in different places.

Target: T1, Human BCL-XL protein (N-terminal HiBiT tagged BCL-XL in HT1080 cells) (Homo sapiens, UniProt Q07817)
T1 construct: expressed in transfected cells; host or cells: HT-1080 (ATCC CCL-121), stably transduced with lentivirus pLV-UBC-N-HiBiT-BCL-XL-PGK-puro and selected with puromycin
Assay: HiBiT based degradation assay
Assay type: cell-based
Settings: HT1080 cells expressing HiBiT-BCL-XL; for Ymin (24 h) / Ymin (6 h): BCL-XL degradation normalized with DMSO control; for DC50: BCL-XL degradation
From the text: Human BCL-XL protein coding open reading frame fused with N-terminal HiBiT coding sequence was synthesized from Integrated DNA Technologies (IDT). Next, N-HiBiT-BCL-XL sequence was cloned into pLV-UBC-PGK-Puro, a lentivirus plasmid purchased from Vectorbuilder, to generate pLV-UBC-N-HiBiT-BCL-XL-PGK-puro. Lentiviral particles were generated from Lenti-X™ 293T cells (Clontech) by co-transfection of pLV-UBC-N-HiBiT-BCL-XL-PGK-puro plasmids and lentiviral packaging plasmid mix (Cellecta). HT-1080 [HT1080](ATCC CCL-121) cells were infected with the lentivirus, and HT1080 cells stably integrated with the lentiviral vectors were established by incubation with 1 μg/mL puromycin (Thermofisher).
HT1080 cells expressing N-terminal HiBiT tagged BCL-XL were dispensed into a 384-well plate pre-spotted with compounds at varying concentrations. Three thousand cells were seeded into each well in 40 μL of RPMI 1640 media. […] After incubation, luminescence was read on a PHERAstar FSX Plate Reader (BMG). BCL-XL degradation at each indicated concentration was normalized with the DMSO control. The BCL-XL degradation curves were plotted using a four-parameter logistic model. For compounds displaying hook effects, the curve fitting was performed using the bottom point of the hook curves (i.e., the point of Ymin) as the bottom plateau to calculate EC50.

T1 sequence (Q07817 whole entry): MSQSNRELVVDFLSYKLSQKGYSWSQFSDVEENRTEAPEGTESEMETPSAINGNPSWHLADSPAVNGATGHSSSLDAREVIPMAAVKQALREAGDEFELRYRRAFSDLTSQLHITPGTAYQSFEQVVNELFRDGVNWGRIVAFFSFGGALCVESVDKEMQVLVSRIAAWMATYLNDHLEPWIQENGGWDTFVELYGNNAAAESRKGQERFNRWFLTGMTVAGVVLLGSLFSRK

SMILES	Ymin (24 h)	DC50 (24 h, read-out: EC50 (24 h))	Ymin (6 h)	DC50 (6 h, read-out: EC50 (6 h))
Cc1c(OCCCC2CCN(CCN3CCN(c4ccc5c(C6CCC(=O)NC6=O)nn(C)c5c4)CC3)CC2)cccc1-c1ccc(N2CCc3cccc(C(=O)Nc4nc5ccccc5s4)c3C2)nc1C(=O)O (centres unmarked) [Compound 220, 6-[8-(1,3-benzothiazol-2-ylcarbamoyl)-3,4-dihydro-1H-isoquinolin-2-yl]-3-[3-[3-[1-[2-[4-[3-(2,6-dioxo-3-piperidyl)-1-methyl-indazol-6-yl]piperazin-1-yl]ethyl]-4-piperidyl]propoxy]-2-methyl-phenyl]pyridine-2-carboxylic acid]	A (Ymin < 50%)	< 100 nM		
Cc1c(OCCC2CCN(CCC3CCN(c4ccc5c(C6CCC(=O)NC6=O)nn(C)c5c4)CC3)CC2)cccc1-c1ccc(N2CCc3cccc(C(=O)Nc4nc5ccccc5s4)c3C2)nc1C(=O)O (centres unmarked) [Compound 223, 6-(8-(benzo[d]thiazol-2-ylcarbamoyl)-3,4-dihydroisoquinolin-2(1H)-yl)-3-(3-(2-(1-(2-(1-(3-(2,6-dioxopiperidin-3-yl)-1-methyl-1H-indazol-6-yl)piperidin-4-yl)ethyl)piperidin-4-yl)ethoxy)-2-methylphenyl)picolinic acid]	A (Ymin < 50%)	< 100 nM		
Cc1c(OCCCC2CCN(CC3CCN(c4cccc5c(C6CCC(=O)NC6=O)nn(C)c45)CC3)CC2)cccc1-c1ccc(N2CCc3cccc(C(=O)Nc4nc5ccccc5s4)c3C2)nc1C(=O)O (centres unmarked) [Compound 279, 6-[8-(1,3-benzothiazol-2-ylcarbamoyl)-3,4-dihydro-1H-isoquinolin-2-yl]-3-[3-[3-[1-[[1-[3-(2,6-dioxo-3-piperidyl)-1-methyl-indazol-7-yl]-4-piperidyl]methyl]-4-piperidyl]propoxy]-2-methyl-phenyl]pyridine-2-carboxylic acid]	A (Ymin < 50%)	< 100 nM		
Cc1c(OCCCC2CCN(CC(=O)N3CCN(c4ccc5c(C6CCC(=O)NC6=O)nn(C)c5c4)CC3)CC2)cccc1-c1ccc(N2CCc3cccc(C(=O)Nc4nc5ccccc5s4)c3C2)nc1C(=O)O (centres unmarked) [Compound 142, 6-(8-(benzo[d]thiazol-2-ylcarbamoyl)-3,4-dihydroisoquinolin-2(1H)-yl)-3-(3-(3-(1-(2-(4-(3-(2,6-dioxopiperidin-3-yl)-1-methyl-1H-indazol-6-yl)piperazin-1-yl)-2-oxoethyl)piperidin-4-yl)propoxy)-2-methylphenyl)picolinic acid]	A (Ymin < 50%)	< 100 nM	A (Ymin < 50%)	< 100 nM
Cc1c(OCCC2CCN(CC(=O)N3CCN(c4ccc5c(C6CCC(=O)NC6=O)nn(C)c5c4)CC3)CC2)cccc1-c1ccc(N2CCc3cccc(C(=O)Nc4nc5ccccc5s4)c3C2)nc1C(=O)O (centres unmarked) [Compound 143, 6-(8-(benzo[d]thiazol-2-ylcarbamoyl)-3,4-dihydroisoquinolin-2(1H)-yl)-3-(3-(2-(1-(2-(4-(3-(2,6-dioxopiperidin-3-yl)-1-methyl-1H-indazol-6-yl)piperazin-1-yl)-2-oxoethyl)piperidin-4-yl)ethoxy)-2-methylphenyl)picolinic acid]	A (Ymin < 50%)	< 100 nM	A (Ymin < 50%)	< 100 nM
Cc1c(Oc2ccc(CCCN3CCN(c4cccc5c(C6CCC(=O)NC6=O)nn(C)c45)CC3)cc2)cccc1-c1ccc(N2CCc3cccc(C(=O)Nc4nc5ccccc5s4)c3C2)nc1C(=O)O (centres unmarked) [Compound 150, 6-[8-(1,3-benzothiazol-2-ylcarbamoyl)-3,4-dihydro-1H-isoquinolin-2-yl]-3-[3-[4-[3-[4-[3-(2,6-dioxo-3-piperidyl)-1-methyl-indazol-7-yl]piperazin-1-yl]propyl]phenoxy]-2-methyl-phenyl]pyridine-2-carboxylic acid]	B (50% ≤ Ymin < 70%)	< 100 nM	B (50% ≤ Ymin < 70%)	100 to 1000 nM
Cc1c(O[C@H]2CC[C@H](CCC(=O)N3CCN(c4ccc5c(C6CCC(=O)NC6=O)nn(C)c5c4)CC3)CC2)cccc1-c1ccc(N2CCc3cccc(C(=O)Nc4nc5ccccc5s4)c3C2)nc1C(=O)O (some centres unmarked) [Compound 138a, 6-(8-(benzo[d]thiazol-2-ylcarbamoyl)-3,4-dihydroisoquinolin-2(1H)-yl)-3-(3-(((1r,4r)-4-(3-(4-(3-(2,6-dioxopiperidin-3-yl)-1-methyl-1H-indazol-6-yl)piperazin-1-yl)-3-oxopropyl)cyclohexyl)oxy)-2-methylphenyl)picolinic acid]	B (50% ≤ Ymin < 70%)	< 100 nM	B (50% ≤ Ymin < 70%)	1000 to 10000 nM
Cc1cc(Oc2ccc(CCC(=O)Nc3ccc4c(C5CCC(=O)NC5=O)nn(C)c4c3)cc2)ccc1-c1ccc(N2CCc3cccc(C(=O)Nc4nc5ccccc5s4)c3C2)nc1C(=O)O (centres unmarked) [Compound 139, 6-(8-(benzo[d]thiazol-2-ylcarbamoyl)-3,4-dihydroisoquinolin-2(1H)-yl)-3-(4-(4-(3-((3-(2,6-dioxopiperidin-3-yl)-1-methyl-1H-indazol-6-yl)amino)-3-oxopropyl)phenoxy)-2-methylphenyl)picolinic acid]	B (50% ≤ Ymin < 70%)	100 to 1000 nM	B (50% ≤ Ymin < 70%)	100 to 1000 nM

The next lines start with the values.

Ymin (24 h)	DC50 (24 h, read-out: EC50 (24 h))	Ymin (6 h)	DC50 (6 h, read-out: EC50 (6 h))	SMILES
A (Ymin < 50%)	< 100 nM			Cc1c(O[C@H]2CCC3(CCN(CC(=O)Nc4ccc5c(C6CCC(=O)NC6=O)nn(C)c5c4)CC3)C2)cccc1-c1ccc(N2CCc3cccc(C(=O)Nc4nc5ccccc5s4)c3C2)nc1C(=O)O (single isomer, unassigned) [Compound 268a]
B (50% ≤ Ymin < 70%)	< 100 nM			Cc1c(O[C@H]2CC[C@H](CCCN3CCN(c4ccc5c(C6CCC(=O)NC6=O)nn(C)c5c4)[C@H](C(F)(F)F)C3)CC2)cccc1-c1ccc(N2CCc3cccc(C(=O)Nc4nc5ccccc5s4)c3C2)nc1C(=O)O (stereo partly drawn) [Compound 301b, 6-(8-(benzo[d]thiazol-2-ylcarbamoyl)-3,4-dihydroisoquinolin-2(1H)-yl)-3-(3-(((1r,4r)-4-(3-((3S)-4-(3-(2,6-dioxopiperidin-3-yl)-1-methyl-1H-indazol-6-yl)-3-(trifluoromethyl)piperazin-1-yl)propyl)cyclohexyl)oxy)-2-methylphenyl)picolinic acid]
B (50% ≤ Ymin < 70%)	< 100 nM			Cc1c(O[C@H]2CC[C@H](CC(F)(F)CN3CCN(c4ccc5c(C6CCC(=O)NC6=O)nn(C)c5c4)CC3)CC2)cccc1-c1ccc(N2CCc3cccc(C(=O)Nc4nc5ccccc5s4)c3C2)nc1C(=O)O (some centres unmarked) [Compound 212a, 6-(8-(benzo[d]thiazol-2-ylcarbamoyl)-3,4-dihydroisoquinolin-2(1H)-yl)-3-(3-(((1r,4r)-4-(3-(4-(3-(2,6-dioxopiperidin-3-yl)-1-methyl-1H-indazol-6-yl)piperazin-1-yl)-2,2-difluoropropyl)cyclohexyl)oxy)-2-methylphenyl)picolinic acid]
